Each block holds one molecule with its values, some of them ahead of it.
Tests used:
[1] = biological target: T1, Muscarinic acetylcholine receptor M1 (Homo sapiens) (UniProt P11229); experiment: Selectivity interaction (Panel of kinases, GPCRs, ion channels and transporters (enzymatic assay)) EUB0000266bCl CHRM1
T1 sequence (whole entry): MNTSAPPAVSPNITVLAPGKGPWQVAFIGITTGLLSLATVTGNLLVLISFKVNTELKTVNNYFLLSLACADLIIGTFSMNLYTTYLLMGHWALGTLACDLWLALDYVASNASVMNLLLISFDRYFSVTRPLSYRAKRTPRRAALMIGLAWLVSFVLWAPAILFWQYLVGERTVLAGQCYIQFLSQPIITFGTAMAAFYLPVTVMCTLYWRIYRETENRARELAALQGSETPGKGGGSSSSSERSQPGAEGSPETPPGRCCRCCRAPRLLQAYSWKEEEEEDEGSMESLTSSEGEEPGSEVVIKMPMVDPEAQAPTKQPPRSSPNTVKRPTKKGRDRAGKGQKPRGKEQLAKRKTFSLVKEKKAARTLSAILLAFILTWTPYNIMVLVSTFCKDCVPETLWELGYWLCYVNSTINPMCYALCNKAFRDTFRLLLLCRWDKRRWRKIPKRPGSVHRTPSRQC

[2] = biological target: Serine/threonine-protein kinase MARK2 (Homo sapiens) (UniProt Q7KZI7); experiment: Selectivity interaction (ActivX KiNativ screen (kinase selectivity in THP-1 cell lysates)) EUB0000639a MARK2; format: subcellular; conditions: lysate, at 0.01 µM
[3] = biological target: Non-receptor tyrosine-protein kinase TYK2 (Homo sapiens, UniProt P29597); experiment: Selectivity interaction (Kinase panel (Invitrogen)) EUB0000639a TYK2; conditions: at 200 nM
[4] = biological target: RAC-alpha serine/threonine-protein kinase (Homo sapiens, UniProt P31749); experiment: Selectivity interaction (KinomeScan (DiscoverX)) EUB0000595a AKT1; conditions: at 10 µM
[5] = biological target: Serine/threonine-protein kinase SIK3 (Homo sapiens) (UniProt Q9Y2K2); experiment: Selectivity interaction (KinomeScan (DiscoverX)) EUB0000595a SIK3; conditions: at 10 µM
[6] = biological target: T2, Mitogen-activated protein kinase kinase kinase kinase 2 (Homo sapiens) (UniProt Q12851); experiment: Selectivity interaction (ProQinase) EUB0000171b MAP4K2
T2 sequence (whole entry): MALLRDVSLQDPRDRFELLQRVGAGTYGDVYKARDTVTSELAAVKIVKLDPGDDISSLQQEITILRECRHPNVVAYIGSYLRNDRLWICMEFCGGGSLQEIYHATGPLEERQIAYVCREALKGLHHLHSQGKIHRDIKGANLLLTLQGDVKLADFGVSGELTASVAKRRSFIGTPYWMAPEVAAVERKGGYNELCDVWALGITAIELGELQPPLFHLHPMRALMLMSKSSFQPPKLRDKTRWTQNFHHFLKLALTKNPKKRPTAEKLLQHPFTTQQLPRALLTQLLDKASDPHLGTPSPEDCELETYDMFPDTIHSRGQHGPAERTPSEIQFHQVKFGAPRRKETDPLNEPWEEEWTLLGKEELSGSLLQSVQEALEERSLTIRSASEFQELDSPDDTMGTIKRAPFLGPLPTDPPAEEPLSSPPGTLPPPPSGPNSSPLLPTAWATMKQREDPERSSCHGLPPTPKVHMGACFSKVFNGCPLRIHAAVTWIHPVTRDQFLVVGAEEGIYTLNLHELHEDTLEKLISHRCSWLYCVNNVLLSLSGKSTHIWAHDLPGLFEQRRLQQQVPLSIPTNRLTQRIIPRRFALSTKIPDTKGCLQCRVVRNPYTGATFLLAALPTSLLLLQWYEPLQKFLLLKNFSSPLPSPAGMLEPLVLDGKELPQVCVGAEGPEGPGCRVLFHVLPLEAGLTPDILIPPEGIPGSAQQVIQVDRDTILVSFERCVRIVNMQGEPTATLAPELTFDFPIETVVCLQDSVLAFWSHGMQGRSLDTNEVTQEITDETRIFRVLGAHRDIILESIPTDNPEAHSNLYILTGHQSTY

Insulin receptor = Insulin receptor (Homo sapiens, UniProt P06213); experiment: Selectivity interaction (KinomeScan (DiscoverX)) EUB0000045b INSR
[7] = system: Serine/threonine-protein kinase B-raf (Homo sapiens), P15056 [V600E]; conditions: at 10 µM
[8] = biological target: Ribosomal protein S6 kinase alpha-3 (Homo sapiens, UniProt P51812); experiment: Selectivity interaction (KinomeScan (DiscoverX)) EUB0000311b RPS6KA3; conditions: at 1 µM
[9] = biological target: Vascular endothelial growth factor receptor 1 (Homo sapiens) (UniProt P17948); experiment: Selectivity interaction (KinomeScan (DiscoverX)) EUB0000666a FLT1; conditions: at 10 µM
[10] = biological target: T3, Tyrosine-protein kinase Mer (Homo sapiens) (UniProt Q12866); experiment: Selectivity interaction (KinomeScan (DiscoverX)) EUB0000666a MERTK; conditions: at 10 µM
T3 sequence (whole entry): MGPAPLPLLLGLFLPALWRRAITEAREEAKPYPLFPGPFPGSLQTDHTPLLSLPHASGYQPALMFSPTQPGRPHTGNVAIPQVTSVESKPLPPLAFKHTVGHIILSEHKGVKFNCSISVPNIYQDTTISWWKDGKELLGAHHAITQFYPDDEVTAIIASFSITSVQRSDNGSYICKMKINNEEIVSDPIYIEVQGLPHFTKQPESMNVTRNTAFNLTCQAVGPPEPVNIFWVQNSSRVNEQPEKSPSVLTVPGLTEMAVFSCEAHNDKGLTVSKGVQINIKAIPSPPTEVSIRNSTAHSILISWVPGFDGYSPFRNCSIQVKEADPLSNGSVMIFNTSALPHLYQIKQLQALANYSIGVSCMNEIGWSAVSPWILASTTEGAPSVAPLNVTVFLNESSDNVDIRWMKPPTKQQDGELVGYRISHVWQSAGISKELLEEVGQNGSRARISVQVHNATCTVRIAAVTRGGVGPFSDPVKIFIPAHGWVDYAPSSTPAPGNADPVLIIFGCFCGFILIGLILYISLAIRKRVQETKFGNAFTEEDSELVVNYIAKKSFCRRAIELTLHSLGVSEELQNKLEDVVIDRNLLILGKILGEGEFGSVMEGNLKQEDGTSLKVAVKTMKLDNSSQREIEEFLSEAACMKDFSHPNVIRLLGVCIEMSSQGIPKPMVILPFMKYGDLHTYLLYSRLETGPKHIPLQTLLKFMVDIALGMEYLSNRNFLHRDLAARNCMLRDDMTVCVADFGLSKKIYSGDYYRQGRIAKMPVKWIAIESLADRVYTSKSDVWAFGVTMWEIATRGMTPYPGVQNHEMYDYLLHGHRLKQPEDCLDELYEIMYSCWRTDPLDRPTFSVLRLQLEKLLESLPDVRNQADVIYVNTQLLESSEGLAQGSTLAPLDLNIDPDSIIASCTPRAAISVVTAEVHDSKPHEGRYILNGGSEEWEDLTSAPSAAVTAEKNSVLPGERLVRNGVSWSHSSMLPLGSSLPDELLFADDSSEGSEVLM

Sequence of Insulin receptor (P06213 28-758 limits assumed): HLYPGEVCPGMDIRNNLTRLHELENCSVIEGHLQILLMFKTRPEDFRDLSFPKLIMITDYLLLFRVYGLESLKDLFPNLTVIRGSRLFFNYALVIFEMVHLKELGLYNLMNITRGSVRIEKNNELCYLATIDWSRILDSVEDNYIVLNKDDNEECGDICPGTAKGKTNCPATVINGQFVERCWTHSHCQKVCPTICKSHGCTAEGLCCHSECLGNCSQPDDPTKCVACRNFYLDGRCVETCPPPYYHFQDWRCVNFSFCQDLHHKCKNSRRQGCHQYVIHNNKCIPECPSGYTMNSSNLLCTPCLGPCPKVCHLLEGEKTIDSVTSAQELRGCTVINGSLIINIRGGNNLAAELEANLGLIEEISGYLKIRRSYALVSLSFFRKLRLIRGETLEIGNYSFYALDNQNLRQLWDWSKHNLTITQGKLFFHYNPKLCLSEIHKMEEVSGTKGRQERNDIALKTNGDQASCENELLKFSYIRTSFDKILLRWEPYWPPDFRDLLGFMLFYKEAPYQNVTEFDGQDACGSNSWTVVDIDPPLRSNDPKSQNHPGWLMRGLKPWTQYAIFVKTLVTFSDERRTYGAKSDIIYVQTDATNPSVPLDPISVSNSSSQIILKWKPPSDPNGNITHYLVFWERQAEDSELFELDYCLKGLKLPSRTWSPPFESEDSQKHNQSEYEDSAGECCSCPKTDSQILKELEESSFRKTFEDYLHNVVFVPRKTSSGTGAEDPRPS
Sequence of Insulin receptor (P06213 763-1382 limits assumed): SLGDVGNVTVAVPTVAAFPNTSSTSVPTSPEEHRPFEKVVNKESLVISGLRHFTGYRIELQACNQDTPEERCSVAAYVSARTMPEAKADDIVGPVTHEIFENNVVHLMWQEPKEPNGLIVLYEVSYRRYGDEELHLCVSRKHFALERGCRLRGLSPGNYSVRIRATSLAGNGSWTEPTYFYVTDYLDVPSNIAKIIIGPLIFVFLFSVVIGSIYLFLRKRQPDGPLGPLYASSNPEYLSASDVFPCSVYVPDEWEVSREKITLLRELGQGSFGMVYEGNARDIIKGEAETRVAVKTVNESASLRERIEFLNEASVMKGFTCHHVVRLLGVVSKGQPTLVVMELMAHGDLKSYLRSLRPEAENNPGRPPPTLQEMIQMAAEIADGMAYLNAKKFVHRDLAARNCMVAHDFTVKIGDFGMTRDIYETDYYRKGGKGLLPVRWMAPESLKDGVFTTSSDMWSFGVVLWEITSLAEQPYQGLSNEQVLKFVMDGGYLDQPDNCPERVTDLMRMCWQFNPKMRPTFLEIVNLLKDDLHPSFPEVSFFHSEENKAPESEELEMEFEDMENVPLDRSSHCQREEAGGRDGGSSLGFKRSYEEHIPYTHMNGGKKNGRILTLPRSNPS
Sequence of Ribosomal protein S6 kinase alpha-3 (P51812 whole entry): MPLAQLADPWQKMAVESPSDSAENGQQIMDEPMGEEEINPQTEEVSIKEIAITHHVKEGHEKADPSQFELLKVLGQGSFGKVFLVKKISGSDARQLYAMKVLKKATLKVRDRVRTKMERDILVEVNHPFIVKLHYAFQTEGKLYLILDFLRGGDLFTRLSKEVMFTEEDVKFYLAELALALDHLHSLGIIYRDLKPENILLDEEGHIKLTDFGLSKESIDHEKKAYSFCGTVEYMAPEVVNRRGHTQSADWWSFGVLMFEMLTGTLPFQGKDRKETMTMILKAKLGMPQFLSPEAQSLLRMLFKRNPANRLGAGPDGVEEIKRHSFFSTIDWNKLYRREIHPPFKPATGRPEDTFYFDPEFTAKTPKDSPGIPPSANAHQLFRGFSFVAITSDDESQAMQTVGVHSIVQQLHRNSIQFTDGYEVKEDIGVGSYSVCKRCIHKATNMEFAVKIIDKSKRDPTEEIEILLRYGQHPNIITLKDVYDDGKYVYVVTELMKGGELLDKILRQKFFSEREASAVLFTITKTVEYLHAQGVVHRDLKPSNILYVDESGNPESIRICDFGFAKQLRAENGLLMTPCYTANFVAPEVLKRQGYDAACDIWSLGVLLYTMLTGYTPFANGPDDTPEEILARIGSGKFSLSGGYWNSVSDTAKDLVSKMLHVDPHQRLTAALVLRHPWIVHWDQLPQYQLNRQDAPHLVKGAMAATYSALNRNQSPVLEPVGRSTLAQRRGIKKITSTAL
Sequence of Vascular endothelial growth factor receptor 1 (Homo sapiens) (P17948 whole entry): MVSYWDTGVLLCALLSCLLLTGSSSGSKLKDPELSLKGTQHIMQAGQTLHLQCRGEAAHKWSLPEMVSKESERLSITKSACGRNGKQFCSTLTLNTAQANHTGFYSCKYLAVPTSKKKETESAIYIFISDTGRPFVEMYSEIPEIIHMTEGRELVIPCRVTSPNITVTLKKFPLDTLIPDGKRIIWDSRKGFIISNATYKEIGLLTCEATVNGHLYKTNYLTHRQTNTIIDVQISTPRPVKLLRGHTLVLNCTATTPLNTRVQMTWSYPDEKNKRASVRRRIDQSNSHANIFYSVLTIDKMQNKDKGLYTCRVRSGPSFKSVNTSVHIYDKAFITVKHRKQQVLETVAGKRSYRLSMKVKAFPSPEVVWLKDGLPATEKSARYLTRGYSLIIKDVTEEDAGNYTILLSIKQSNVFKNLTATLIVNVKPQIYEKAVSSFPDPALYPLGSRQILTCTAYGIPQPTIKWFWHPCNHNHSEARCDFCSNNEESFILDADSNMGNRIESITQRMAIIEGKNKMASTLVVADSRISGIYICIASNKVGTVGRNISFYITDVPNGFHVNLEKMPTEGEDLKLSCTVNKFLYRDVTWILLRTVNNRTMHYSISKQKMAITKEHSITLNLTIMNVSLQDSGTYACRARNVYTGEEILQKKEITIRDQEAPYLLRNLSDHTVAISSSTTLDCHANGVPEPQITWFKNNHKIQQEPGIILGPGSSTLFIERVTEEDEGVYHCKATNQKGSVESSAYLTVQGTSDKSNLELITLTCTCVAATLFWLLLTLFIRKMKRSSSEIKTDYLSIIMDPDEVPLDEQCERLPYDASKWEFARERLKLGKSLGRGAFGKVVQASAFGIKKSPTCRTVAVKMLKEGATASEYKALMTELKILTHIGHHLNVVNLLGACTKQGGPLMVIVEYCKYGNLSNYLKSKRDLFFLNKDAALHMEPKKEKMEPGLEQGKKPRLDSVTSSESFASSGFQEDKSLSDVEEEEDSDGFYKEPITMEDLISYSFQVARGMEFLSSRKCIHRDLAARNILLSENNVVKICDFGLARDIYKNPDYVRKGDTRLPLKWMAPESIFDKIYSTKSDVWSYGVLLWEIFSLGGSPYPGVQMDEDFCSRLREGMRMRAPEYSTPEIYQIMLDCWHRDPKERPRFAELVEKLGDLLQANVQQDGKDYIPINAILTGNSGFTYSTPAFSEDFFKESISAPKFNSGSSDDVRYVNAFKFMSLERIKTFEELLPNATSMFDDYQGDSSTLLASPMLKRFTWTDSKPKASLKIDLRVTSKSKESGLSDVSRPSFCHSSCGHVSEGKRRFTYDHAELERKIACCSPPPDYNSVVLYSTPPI
Sequence of Serine/threonine-protein kinase SIK3 (Homo sapiens) (Q9Y2K2 whole entry, looked up): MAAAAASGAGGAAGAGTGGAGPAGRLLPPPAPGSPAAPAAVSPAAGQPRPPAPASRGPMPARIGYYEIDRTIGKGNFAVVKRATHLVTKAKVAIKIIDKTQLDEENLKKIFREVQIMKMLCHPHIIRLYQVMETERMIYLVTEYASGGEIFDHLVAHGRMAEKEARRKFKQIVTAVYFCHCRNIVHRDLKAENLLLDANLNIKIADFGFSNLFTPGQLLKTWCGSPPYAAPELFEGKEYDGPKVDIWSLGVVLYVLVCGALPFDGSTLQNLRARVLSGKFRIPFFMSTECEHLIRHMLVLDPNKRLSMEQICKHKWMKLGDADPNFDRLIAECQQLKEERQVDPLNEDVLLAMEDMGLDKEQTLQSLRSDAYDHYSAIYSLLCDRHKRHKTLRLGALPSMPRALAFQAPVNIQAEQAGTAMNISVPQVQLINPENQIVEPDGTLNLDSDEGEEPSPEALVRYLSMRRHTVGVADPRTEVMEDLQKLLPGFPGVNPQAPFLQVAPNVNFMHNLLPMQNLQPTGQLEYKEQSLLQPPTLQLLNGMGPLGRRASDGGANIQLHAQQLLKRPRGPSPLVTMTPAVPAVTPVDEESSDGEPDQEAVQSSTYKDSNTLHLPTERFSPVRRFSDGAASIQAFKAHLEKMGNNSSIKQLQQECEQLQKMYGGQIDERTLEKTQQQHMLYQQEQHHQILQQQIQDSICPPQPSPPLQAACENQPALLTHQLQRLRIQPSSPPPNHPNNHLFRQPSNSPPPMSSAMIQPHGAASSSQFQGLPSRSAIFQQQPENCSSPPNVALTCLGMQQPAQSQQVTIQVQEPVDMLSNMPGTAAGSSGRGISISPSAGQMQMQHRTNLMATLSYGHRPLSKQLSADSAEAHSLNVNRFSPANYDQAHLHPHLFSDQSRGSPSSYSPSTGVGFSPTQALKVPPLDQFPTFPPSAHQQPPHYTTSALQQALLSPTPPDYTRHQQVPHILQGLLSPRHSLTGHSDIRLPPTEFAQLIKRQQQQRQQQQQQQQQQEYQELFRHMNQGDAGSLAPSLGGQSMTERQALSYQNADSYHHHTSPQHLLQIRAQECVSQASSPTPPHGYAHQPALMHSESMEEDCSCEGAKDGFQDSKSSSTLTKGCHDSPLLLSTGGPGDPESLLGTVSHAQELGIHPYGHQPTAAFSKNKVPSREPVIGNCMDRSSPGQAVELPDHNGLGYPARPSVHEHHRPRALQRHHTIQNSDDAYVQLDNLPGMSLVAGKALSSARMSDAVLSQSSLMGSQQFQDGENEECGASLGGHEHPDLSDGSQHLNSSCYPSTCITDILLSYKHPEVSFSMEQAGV

pXC50 [1]: < 4.8 M
Structure (SMILES): CCn1c(-c2nc3cc(C(=O)N4CCCC(N)C4)ccc3n2C)cc2ccccc21 (stereo not drawn)

% of inhibition [2]: 12.7%
% of inhibition [3]: 5.13%
Structure (SMILES): CC[C@@H]1[C@H](F)C(=O)N[C@@H]1COc1nccc2cc(C(N)=O)c(OC)cc12 [ZIMLOVISERTIB]

Structure (SMILES): COCC(=O)NC/C=C/c1ccc2ncnc(Nc3ccc(Oc4ccc(C)nc4)c(C)c3)c2c1 [CP-724714]
% of control [4]: 100%
% of control [5]: 76%

% of control ([6]; at 1 µM): 89%
% of control ([6]; at 5 µM): 50%
Structure (SMILES): C=CC(=O)Nc1cccc(C(=O)Nc2ccc(Nc3cc(-c4[nH]c(SC)nc4C)ccn3)cc2)c1

Structure (SMILES): C=CC(=O)Nc1cc(-n2c(=O)ccc3cnc4ccc(-c5ccc(NS(C)(=O)=O)cc5)cc4c32)ccc1C
% of control (Insulin receptor; at 1 µM): 93%
% of control (Insulin receptor; at 10 µM): 100%

Structure (SMILES): CN(C)CCOc1ccc(-c2nc(-c3ccncc3)c(-c3ccc4c(c3)CC/C4=N\O)[nH]2)cc1
% of control [7]: 0%

% of control [8]: 0.3%
Structure (SMILES): CCc1ccccc1C(=O)Nc1n[nH]c2c(C)c(F)c(C3C(C#N)=C(C)N(C)C(C)=C3C#N)cc12 [BAY-3827]

Structure (SMILES): O=C(NOC[C@H](O)CO)c1ccc(F)c(F)c1Nc1ccc(I)cc1F
% of control [9]: 94%
% of control [10]: 100%
